Test results taken from PMC3914206.

Columns and labels:
Experiment in all cases: KiNativ chemical proteomics profiling in HeLa and PC3 cell lysates
Type in all cases: binding
[1] = biological target: T1, selected panels of kinases in HeLa and PC3 cell lysates (Homo sapiens, UniProt Q15759); details: 10 uM; proteome PC3; peptide QELNkTVWEVPQR; labeling site Other
T1 construct: endogenous in cells; host or cells: HeLa and PC3 cell lysates

[2] = biological target: T2, selected panels of kinases in HeLa and PC3 cell lysates (Homo sapiens, UniProt P23458); details: 10 uM, proteome HEL; for % Inhibiton, JAK1 domain1: peptide […]kNLLLAR, labeling site Other
T2 construct: endogenous in cells; host or cells: HeLa and PC3 cell lysates
T2 sequence (P23458 whole entry, the tested form may be a part): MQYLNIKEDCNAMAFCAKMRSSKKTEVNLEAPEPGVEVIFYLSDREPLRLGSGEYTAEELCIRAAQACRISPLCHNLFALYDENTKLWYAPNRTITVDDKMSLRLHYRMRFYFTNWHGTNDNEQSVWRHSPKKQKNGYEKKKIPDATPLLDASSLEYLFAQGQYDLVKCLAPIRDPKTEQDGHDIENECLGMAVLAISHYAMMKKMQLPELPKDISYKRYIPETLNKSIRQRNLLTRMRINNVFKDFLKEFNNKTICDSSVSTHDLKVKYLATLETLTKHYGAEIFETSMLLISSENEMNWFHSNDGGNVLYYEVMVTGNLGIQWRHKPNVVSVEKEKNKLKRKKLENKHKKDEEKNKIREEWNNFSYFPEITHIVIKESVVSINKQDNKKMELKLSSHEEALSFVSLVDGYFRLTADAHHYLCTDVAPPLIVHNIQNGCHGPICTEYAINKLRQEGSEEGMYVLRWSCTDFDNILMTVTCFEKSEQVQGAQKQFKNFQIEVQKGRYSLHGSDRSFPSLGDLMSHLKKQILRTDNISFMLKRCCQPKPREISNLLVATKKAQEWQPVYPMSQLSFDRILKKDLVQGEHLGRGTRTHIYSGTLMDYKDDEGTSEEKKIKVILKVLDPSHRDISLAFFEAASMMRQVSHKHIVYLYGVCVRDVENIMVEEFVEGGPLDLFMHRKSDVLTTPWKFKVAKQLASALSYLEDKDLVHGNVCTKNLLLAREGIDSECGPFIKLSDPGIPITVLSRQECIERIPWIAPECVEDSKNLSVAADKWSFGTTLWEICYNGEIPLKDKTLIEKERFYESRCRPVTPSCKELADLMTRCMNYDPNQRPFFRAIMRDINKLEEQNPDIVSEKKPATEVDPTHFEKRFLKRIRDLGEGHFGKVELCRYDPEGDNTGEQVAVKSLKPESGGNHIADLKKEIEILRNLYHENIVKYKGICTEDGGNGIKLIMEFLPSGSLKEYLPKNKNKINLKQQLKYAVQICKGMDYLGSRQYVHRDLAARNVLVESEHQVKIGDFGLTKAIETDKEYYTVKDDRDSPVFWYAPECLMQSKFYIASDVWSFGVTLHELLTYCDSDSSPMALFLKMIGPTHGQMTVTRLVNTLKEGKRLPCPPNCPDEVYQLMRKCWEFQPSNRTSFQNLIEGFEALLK

[3] = biological target: T3, selected panels of kinases in HeLa and PC3 cell lysates (Homo sapiens, UniProt Q96Q15); details: 10 uM; SMG1; peptide […]kTKPK; proteome HEL; labeling site ATP
T3 construct: endogenous in cells; host or cells: HeLa and PC3 cell lysates

[4] = biological target: T4, selected panels of kinases in HeLa and PC3 cell lysates (Homo sapiens, UniProt Q9Y616); details: 10 uM; proteome HEL; peptide […]k[…]; labeling site Protein Kinase Domain
T4 construct: endogenous in cells; host or cells: HeLa and PC3 cell lysates
T4 sequence (Q9Y616 whole entry, the tested form may be a part): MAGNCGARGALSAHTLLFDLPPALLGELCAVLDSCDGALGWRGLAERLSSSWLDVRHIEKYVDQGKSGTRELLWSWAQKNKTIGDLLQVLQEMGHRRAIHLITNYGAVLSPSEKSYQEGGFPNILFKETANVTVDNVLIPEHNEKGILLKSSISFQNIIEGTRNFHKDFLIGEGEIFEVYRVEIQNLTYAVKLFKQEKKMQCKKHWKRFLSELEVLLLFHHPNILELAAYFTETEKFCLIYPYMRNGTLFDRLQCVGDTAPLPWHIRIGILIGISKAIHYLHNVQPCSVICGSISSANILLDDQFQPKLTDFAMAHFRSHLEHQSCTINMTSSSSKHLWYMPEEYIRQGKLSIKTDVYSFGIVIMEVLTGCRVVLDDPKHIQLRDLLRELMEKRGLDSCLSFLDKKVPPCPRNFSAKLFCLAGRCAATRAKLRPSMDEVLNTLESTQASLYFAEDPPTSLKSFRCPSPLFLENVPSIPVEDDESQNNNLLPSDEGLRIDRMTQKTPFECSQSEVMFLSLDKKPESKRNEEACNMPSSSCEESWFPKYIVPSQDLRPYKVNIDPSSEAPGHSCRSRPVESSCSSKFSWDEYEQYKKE

[5] = biological target: T5, selected panels of kinases in HeLa and PC3 cell lysates (Homo sapiens, UniProt P21709); details: 10 uM; proteome PC3; peptide […]kIPIR; labeling site Activation Loop
T5 construct: endogenous in cells; host or cells: HeLa and PC3 cell lysates

[6] = biological target: T6, selected panels of kinases in HeLa and PC3 cell lysates (Homo sapiens, UniProt P29317); details: 10 uM, proteome PC3
T6 construct: endogenous in cells; host or cells: HeLa and PC3 cell lysates
T6 sequence (P29317 24-976): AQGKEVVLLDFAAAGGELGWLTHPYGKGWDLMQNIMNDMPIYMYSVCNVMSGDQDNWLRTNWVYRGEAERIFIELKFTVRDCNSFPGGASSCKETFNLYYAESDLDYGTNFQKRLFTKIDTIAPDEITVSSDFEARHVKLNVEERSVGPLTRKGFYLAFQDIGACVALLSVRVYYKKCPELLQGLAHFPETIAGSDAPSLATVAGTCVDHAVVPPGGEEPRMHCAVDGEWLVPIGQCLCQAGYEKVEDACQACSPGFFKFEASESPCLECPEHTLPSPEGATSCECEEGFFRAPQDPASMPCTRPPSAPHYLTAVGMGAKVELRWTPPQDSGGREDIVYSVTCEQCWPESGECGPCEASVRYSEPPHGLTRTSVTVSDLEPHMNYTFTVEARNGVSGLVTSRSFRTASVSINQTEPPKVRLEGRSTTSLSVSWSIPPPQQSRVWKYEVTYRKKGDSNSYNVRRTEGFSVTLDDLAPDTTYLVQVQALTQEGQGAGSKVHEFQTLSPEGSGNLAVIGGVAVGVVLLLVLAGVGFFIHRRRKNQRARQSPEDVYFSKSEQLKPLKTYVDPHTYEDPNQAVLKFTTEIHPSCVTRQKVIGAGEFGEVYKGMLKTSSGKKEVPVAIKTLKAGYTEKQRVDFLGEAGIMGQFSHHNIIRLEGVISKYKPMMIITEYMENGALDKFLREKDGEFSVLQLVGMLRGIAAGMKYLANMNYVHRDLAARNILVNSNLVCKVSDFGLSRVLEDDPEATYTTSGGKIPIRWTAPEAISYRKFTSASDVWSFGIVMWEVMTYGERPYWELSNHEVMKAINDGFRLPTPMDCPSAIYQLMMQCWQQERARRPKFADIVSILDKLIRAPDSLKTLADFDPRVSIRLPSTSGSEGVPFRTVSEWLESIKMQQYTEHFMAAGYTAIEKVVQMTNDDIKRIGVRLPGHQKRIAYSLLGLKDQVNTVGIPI

[7] = biological target: T7, selected panels of kinases in HeLa and PC3 cell lysates (Homo sapiens, UniProt Q8TD19); details: 10 uM
T7 construct: endogenous in cells; host or cells: HeLa and PC3 cell lysates
T7 sequence (Q8TD19 1-979): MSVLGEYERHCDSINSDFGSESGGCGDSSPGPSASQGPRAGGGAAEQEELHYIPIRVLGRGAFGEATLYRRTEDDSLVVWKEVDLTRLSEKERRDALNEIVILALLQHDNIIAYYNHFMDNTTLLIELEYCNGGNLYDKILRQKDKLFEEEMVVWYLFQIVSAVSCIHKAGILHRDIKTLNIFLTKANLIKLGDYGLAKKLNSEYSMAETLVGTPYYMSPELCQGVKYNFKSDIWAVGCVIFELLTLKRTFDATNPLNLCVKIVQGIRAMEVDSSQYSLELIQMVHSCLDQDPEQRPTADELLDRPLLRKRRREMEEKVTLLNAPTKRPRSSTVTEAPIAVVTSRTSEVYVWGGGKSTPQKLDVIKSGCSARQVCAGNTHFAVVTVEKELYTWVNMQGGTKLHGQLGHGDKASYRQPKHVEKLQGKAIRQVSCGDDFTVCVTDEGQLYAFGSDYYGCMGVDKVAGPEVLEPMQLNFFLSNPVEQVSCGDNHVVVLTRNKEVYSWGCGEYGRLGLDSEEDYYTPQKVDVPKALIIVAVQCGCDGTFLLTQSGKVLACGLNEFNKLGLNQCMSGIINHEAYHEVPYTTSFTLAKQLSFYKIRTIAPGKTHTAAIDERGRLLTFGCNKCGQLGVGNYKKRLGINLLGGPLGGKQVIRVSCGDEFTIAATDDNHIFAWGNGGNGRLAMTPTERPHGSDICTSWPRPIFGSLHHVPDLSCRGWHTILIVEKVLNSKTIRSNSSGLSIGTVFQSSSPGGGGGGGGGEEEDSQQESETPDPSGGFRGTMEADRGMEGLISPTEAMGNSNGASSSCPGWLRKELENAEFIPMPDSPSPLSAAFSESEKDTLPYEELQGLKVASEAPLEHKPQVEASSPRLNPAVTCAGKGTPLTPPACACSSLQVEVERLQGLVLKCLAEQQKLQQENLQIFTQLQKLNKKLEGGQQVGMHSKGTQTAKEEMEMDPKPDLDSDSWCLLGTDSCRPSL

[8] = biological target: T8, selected panels of kinases in HeLa and PC3 cell lysates (Homo sapiens, UniProt P46734); details: 10 uM, peptide DVkPSNVLINK, labeling site Lys2
T8 construct: endogenous in cells; host or cells: HeLa and PC3 cell lysates
T8 sequence (P46734 1-347): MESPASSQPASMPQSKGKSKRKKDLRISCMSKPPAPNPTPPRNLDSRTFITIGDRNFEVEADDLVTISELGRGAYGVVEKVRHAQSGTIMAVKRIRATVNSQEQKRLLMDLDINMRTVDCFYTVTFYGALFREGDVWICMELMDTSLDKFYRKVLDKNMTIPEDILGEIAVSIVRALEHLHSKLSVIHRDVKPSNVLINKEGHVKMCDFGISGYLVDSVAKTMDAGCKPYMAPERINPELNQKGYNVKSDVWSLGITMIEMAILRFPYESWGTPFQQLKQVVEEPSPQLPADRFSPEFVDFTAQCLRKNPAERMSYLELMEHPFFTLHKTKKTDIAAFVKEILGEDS

[9] = biological target: T9, selected panels of kinases in HeLa and PC3 cell lysates (Homo sapiens, UniProt Q13043); details: 10 uM, peptide […]k[…], labeling site Lys1
T9 construct: endogenous in cells; host or cells: HeLa and PC3 cell lysates
T9 sequence (Q13043 1-487): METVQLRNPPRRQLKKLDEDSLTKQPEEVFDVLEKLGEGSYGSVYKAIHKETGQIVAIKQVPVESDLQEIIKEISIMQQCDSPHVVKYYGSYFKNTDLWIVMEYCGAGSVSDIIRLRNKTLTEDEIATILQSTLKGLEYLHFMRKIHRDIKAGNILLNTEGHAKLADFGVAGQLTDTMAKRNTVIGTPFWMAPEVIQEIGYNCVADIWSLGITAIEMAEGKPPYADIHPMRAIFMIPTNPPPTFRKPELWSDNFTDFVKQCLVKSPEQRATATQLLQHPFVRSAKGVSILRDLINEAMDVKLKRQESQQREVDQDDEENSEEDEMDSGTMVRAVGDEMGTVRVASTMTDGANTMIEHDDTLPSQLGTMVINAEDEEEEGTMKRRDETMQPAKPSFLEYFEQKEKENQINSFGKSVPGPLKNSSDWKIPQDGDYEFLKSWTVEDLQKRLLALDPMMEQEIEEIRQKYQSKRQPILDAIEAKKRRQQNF

[10] = biological target: T10, selected panels of kinases in HeLa and PC3 cell lysates (Homo sapiens, UniProt Q7KZI7); details: 10 uM; proteome PC3; peptide EVAVk[…]; labeling site Lys1
T10 construct: endogenous in cells; host or cells: HeLa and PC3 cell lysates
T10 sequence (Q7KZI7 whole entry): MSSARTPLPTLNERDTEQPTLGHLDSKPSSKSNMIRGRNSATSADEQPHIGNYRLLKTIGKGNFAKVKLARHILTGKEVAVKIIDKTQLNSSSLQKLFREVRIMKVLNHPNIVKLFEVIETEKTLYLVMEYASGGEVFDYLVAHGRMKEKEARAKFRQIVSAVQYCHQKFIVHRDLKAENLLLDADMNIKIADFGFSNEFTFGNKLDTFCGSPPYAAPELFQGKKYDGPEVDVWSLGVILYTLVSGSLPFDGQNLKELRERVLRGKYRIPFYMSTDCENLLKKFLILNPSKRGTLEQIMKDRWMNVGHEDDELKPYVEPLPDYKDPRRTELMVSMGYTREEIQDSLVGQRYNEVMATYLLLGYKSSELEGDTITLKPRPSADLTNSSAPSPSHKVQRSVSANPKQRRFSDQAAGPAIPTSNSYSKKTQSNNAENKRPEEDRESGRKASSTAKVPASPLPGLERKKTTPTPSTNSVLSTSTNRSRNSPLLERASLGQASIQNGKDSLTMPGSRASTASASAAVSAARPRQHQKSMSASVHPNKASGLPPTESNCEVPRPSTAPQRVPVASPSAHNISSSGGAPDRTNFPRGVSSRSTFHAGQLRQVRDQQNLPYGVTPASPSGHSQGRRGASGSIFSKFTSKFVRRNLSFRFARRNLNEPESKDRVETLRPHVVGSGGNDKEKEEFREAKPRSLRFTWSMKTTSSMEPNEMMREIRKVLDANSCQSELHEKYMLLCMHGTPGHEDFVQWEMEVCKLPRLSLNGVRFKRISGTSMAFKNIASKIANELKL

[11] = biological target: T11, selected panels of kinases in HeLa and PC3 cell lysates (Homo sapiens, UniProt Q96BR1); details: 10 uM; SGK3; peptide FYAVkVLQK; proteome HEL; labeling site Lys1
T11 construct: endogenous in cells; host or cells: HeLa and PC3 cell lysates
T11 sequence (Q96BR1 whole entry): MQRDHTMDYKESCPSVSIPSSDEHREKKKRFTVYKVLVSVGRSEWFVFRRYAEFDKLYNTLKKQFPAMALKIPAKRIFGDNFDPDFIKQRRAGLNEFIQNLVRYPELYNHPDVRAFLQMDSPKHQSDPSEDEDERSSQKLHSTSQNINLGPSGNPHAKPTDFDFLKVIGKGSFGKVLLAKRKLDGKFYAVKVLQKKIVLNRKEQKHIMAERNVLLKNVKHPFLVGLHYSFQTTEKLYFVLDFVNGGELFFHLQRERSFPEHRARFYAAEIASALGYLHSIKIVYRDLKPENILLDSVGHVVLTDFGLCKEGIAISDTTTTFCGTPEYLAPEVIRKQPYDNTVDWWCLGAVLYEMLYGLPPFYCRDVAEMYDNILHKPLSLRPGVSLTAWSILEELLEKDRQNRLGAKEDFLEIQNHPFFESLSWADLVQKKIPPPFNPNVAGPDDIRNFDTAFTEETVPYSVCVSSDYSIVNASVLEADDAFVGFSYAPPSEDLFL

[12] = peptide IGDFGLTk[…], labeling site Activation Loop
[13] = peptide […]k[…], labeling site Lys1
[14] = peptide EVPVAIkTLK, labeling site Lys1
[15] = peptide […]kIPIR, labeling site Activation Loop
[16] = proteome HEL, peptide DIkTLNIFLTK, labeling site Lys2
[17] = proteome HEL, peptide LGDYGLAkK, labeling site Activation Loop
[18] = proteome PC3, peptide DIkTLNIFLTK, labeling site Lys2
[19] = proteome PC3, peptide LGDYGLAkK, labeling site Activation Loop

T1 sequence (Q15759 whole entry): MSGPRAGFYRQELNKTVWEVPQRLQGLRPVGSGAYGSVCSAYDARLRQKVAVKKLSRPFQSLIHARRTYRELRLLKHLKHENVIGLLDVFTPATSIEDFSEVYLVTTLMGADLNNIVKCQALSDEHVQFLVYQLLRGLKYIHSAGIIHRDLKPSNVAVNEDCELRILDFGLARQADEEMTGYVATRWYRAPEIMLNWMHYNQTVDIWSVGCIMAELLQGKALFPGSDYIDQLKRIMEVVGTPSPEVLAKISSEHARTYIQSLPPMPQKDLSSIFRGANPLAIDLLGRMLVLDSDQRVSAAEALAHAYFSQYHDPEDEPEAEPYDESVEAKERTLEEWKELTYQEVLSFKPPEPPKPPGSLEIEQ

Compound | % Inhibiton, p38b [1] | % Inhibiton, JAK1 domain2 [2, 12] | % Inhibiton, JAK1 domain1 [2] | % Inhibiton, JAK1 domain2 [2, 13] | % Inhibition SMG1 [3] | % Inhibiton, IRAK3 [4] | % Inhibiton, EphA1 [5] | % Inhibiton, EphA2 [6, 14] | % Inhibiton, EphA2 [6, 15] | % Inhibiton, NEK9 [7, 16] | % Inhibiton, NEK9 [7, 17] | % Inhibiton, NEK9 [7, 18] | % Inhibiton, NEK9 [7, 19] | % Inhibiton, MAP2K3 ([8]; proteome HEL) | % Inhibiton, MAP2K3 ([8]; proteome PC3) | % Inhibiton, MST1 ([9]; proteome HEL) | % Inhibiton, MST1 ([9]; proteome PC3) | % Inhibiton, MARK2 [10] | % Inhibition SGK3 [11]
COc1cc(C(=O)N2CCC(N3CCN(C)CC3)CC2)ccc1Nc1ncc2c(n1)N(C1CCCC1)c1ccccc1C(=O)N2C [Compound 25, 11-cyclopentyl-2-((2-methoxy-4-(4-(4-methylpiperazin-1-yl)piperidine-1-carbonyl)phenyl)amino)-5-methyl-5H-benzo[e]pyrimido[5,4-b][1,4]diazepin-6(11H)-one] | 14.5% | 5.1% | 3.2% | 4.8% | -21.0% | 40.5% | -1.8% | -0.8% | -2.3% | 14.6% | 1.9% | 1.6% | 6.7% | 11.8% | -7.0% | -9.9% | -0.157% | 1.3% | 8.2%
CCOc1cc(C(=O)N2CCC(N3CCN(C)CC3)CC2)ccc1Nc1ncc2c(n1)N(C1CCCC1)c1ccccc1C(=O)N2C [Compound 26] | 14.6% | 6.3% | 24.2% | 32.1% | -4.8% | 37% | -0.1% | -1.4% | -3% | 7.6% | -3% | -4.7% | 6.4% | 10.9% | 0.8% | 15.9% | -17.2% | 16.8% | 25.5%
